Measurements reported in patent publication US20210023029A1, “EDASALONEXENT DOSING REGIMEN FOR TREATING MUSCULAR DYSTROPHY” (Catabasis Pharmaceuticals, Inc., priority 2017, published 2021).
Where two headings read alike, the source gives them in different places.

What was measured:
[1] = Edasalonexent dosing regimen pharmacokinetics in C57BL/6 mice (diet or oral gavage, LC/MS/MS); format: in vivo; conditions: for AUC / Cmax / Tmax / AUC(0-t): C57BL/6, mouse; for AUC(0-t): read-out: AUC0-24 h, day 3 (±SE)
Description: C57BL/6 mice were administered edasalonexent in their diet and/or by oral gavage. Pharmacokinetic (PK) modeling was used to identify suitable dosing amounts and timing in relation to the doses of 67 mg/kg/day and 100 mg/kg/day that have been tested in edasalonexent human clinical trials. Specifically, mice were administered 1.5% edasalonexent in their diet, 450 mg/kg/day delivered orally as single daily dose, 450 mg/kg/day delivered orally as three equally divided doses, or 600 mg/kg/day delivered orally as two 150 mg/kg/doses and one 300 mg/kg/dose. For dosing regimens with three daily doses, doses were delivered at 7:00 am, noon and 5:00 pm.
The dosing regimens for each group are depicted in TABLE 1. Each group included 12 mice.
For animals administered edasalonexent in their diet, edasalonexent concentration was measured by LC/MS/MS every 4 hours for 24 hours, beginning on the seventh day of dosing. For animals administered edasalonexent orally, edasalonexent concentration was measured by LC/MS/MS at 0.25, 0.5, 1, 2, 4, 6 and 24 hours after dosing, beginning on the third day of dosing.

mdx mice = test: Quadriceps muscle inflammation and fibrosis in young mdx mice treated four weeks (H&E and picrosirius red staining); format: in vivo
Description: Young mdx mice were treated for four weeks with varying dosing regimens of edasalonexent. The mdx mouse is a useful and generally accepted animal model for studying Duchenne muscular dystrophy (DMD) (Mann et al. (2001) PROC. NATL. ACAD. SCI. 98(1):42-7). mdx mice are deficient in expression of full-length dystrophin due to a genetic mutation within the dystrophin gene.
Mice were administered edasalonexent in their diet, and/or by oral gavage. Specifically, mice were administered 1% edasalonexent in their diet, 450 mg/kg/day delivered orally as single daily dose, 450 mg/kg/day delivered orally as three equally divided doses, and/or 600 mg/kg/day delivered orally as two 150 mg/kg/doses and one 300 mg/kg/dose. For dosing regimens with three daily doses, doses were delivered at 7:00 am, noon and 5:00 pm.
The dosing regimens for each treatment group are depicted in TABLE 4. Each treatment group included 10-11 mice.
Animals were treated for four weeks, sacrificed, and tissues were collected for histological analysis. For assessment of inflammation and fibrosis, quadriceps muscles were processed for hematoxylin and eosin (H&E) and picrosirius red (collagen) histochemical staining. From each animal, 2-4 complete transverse sections were digitally analyzed using ImageJ, with the hematoxylin-stained nuclear area determined as a measure of inflammatory infiltration, and the picrosirius red-stained area determined as a measure of fibrosis.

[2] = MoveDMD trial: systemic exposure and Ctrough in DMD patients; format: in vivo, human; conditions: for daily exposure level versus level effective in inhibiting NF-κB in the adult study: boys with DMD
Description: The MoveDMD trial (see FIG. 10) was designed to evaluate efficacy, safety/tolerability, pharmacokinetics (PK), pharmacodynamics (PD), and dose response of edasalonexent. The first phase portion of the MoveDMD trial was a 1-week study to evaluate the safety, PK, and PD at 33 and 67 mg/kg/day, given in 2 divided doses, and 100 mg/kg/day given in 3 divided doses.
(§1) The second phase and the open-label extension (OLE) portions of the MoveDMD trial enrolled boys ages 4 through 7 with DMD. Phase 2 was a 12-week placebo-controlled study with two cohorts given 33 mg/kg twice daily (BID; 67 mg/kg/day; n=10) or 33 mg/kg three times daily (TID; 100 mg/kg/day; n=10), and a placebo cohort (n=10). Patients in the OLE continued with either dose regimen of edasalonexent.
The ratios of all 24 transcripts within a patient were also averaged, and are shown in FIG. 13 using symbols which represent this average from each individual patient. This average was graphed against the average edasalonexent Ctrough values within each dose cohort (shown on the x-axis in ng/ml).

boys with DMD = test: MoveDMD trial: safety and tolerability; format: in vivo, human
Description: as §1, with “The MoveDMD trial (see FIG. 10) was designed to evaluate efficacy, safety/tolerability, pharmacokinetics (PK), pharmacodynamics (PD), and dose response of edasalonexent. The first phase portion of the MoveDMD trial was a 1-week study to evaluate the safety, PK, and PD at 33 and 67 mg/kg/day, given in 2 divided doses, and 100 mg/kg/day given in 3 divided doses. The” for “The”

[3] = gastrocnemius, 1.5% edasalonexent in diet (group 1)
[4] = group 2, 1% edasalonexent in diet
[5] = group 4, oral QD 450 mg/kg/dose
[6] = group 7, oral TID 150/150/300 mg/kg/dose = 600 mg/kg/day

Structure (SMILES): CC/C=C\C/C=C\C/C=C\C/C=C\C/C=C\C/C=C\CCC(=O)NCCNC(=O)c1ccccc1O [edasalonexent, N-(2-[(4Z,7Z,10Z,13Z,16Z,19Z)-docosa-4,7,10,13,16,19-hexaenamido]ethyl)-2-hydroxybenzamide]
- AUC ([1]; po, 1.5 % in diet, gastrocnemius, 1.5% edasalonexent in diet (group 1)): 7620 ng·h/mL
- Cmax ([1]; po, 1.5 % in diet, gastrocnemius, 1.5% edasalonexent in diet (group 1), read-out: Cmax): 532 ng/mL
- AUC ([1]; po, 1.5 % in diet, plasma, 1.5% edasalonexent in diet (group 1)): 524 ng·h/mL
- Cmax ([1]; po, 1.5 % in diet, plasma, 1.5% edasalonexent in diet (group 1), read-out: Cmax): 44.6 ng/mL
- Tmax ([1]; plasma, group 2, oral QD 450 mg/kg/dose, day 3): 30 min
- Cmax ([1]; plasma, group 2, oral QD 450 mg/kg/dose, day 3, read-out: Cmax (±SE)): 604 ± 83.3 ng/mL
- AUC(0-t) ([1]; plasma, group 2, oral QD 450 mg/kg/dose): 1320 ng·h/mL
- Tmax ([1]; plasma, group 3, oral TID 150 mg/kg/dose = 450 mg/kg/day, day 3): 30 min
- Cmax ([1]; plasma, group 3, oral TID 150 mg/kg/dose = 450 mg/kg/day, day 3, read-out: Cmax (±SE)): 452 ± 47.6 ng/mL
- AUC(0-t) ([1]; plasma, group 3, oral TID 150 mg/kg/dose = 450 mg/kg/day): 1360 ± 211 ng·h/mL
- Tmax ([1]; plasma, group 4, oral TID 150/150/300 mg/kg/dose = 600 mg/kg/day, day 3): 30 min
- Cmax ([1]; plasma, group 4, oral TID 150/150/300 mg/kg/dose = 600 mg/kg/day, day 3, read-out: Cmax (±SE)): 278 ± 46.3 ng/mL
- AUC(0-t) ([1]; plasma, group 4, oral TID 150/150/300 mg/kg/dose = 600 mg/kg/day): 2270 ± 587 ng·h/mL
- Cmean [1, 3]: 332.8 ng/mL
- Cmin [1, 3]: 149.4 ng/mL
- AUC of single daily 450 mg/kg dose relative to edasalonexent in diet ([1]; group 2 (450 mg/kg QD) versus group 1 (1.5% in diet), plasma): ~2.5 fold
- Cmin ([1]; plasma, 1.5% edasalonexent in diet (group 1)): 10.7 ng/mL
- Cmean ([1]; plasma, 1.5% edasalonexent in diet (group 1), from seventh day of dosing): 22.4 ng/mL
- quadriceps muscle fibrosis (picrosirius red-stained area) (mdx mice; [4]): reduced
- quadriceps muscle inflammation (hematoxylin-stained nuclear area) (mdx mice; [4]): reduced
- quadriceps muscle fibrosis (picrosirius red-stained area) (mdx mice; [5]): did not cause a significant reduction
- quadriceps muscle inflammation (hematoxylin-stained nuclear area) (mdx mice; [5]): did not cause a significant reduction
- quadriceps muscle fibrosis (picrosirius red-stained area) (mdx mice; [6]): further drove efficacy
- quadriceps muscle inflammation (hematoxylin-stained nuclear area) (mdx mice; [6]): further drove efficacy
- daily exposure level versus level effective in inhibiting NF-κB in the adult study ([2]; 67 mg/kg/day (33 mg/kg twice daily)): comparable
- daily exposure level versus level effective in inhibiting NF-κB in the adult study ([2]; 100 mg/kg/day (33 mg/kg three times daily)): comparable
- mean Ctrough level ([2]; 100 mg/kg/day compared to 33 and 67 mg/kg/day, after one week): highest Ctrough level
- nature of the majority of adverse events (boys with DMD; 100 mg/kg, study subjects): mild in nature and mostly gastrointestinal
- safety findings (boys with DMD; 100 mg/kg, study subjects): no adverse findings
- tolerability (boys with DMD; 100 mg/kg, study subjects): well tolerated
- trends in hematology, chemistry, renal or adrenal function, calcium or phosphate levels (boys with DMD; 100 mg/kg, study subjects): No adverse trends
- side effects compared to the 133 mg/kg/day dosing regimen (boys with DMD; 100 mg/kg/day versus 133 mg/kg/day (33/33/67 mg/kg)): fewer side effects
- heart rate (boys with DMD; study subjects over the 60 week study period): decreased toward age normative values
- height and weight (boys with DMD; study subjects over the treatment period, CDC Growth Chart percentiles): age appropriate increases
